Experimental data as given in ChEMBL document CHEMBL2169865, “Selective class I phosphoinositide 3-kinase inhibitors: optimization of a series of pyridyltriazines leading to the identification of a clinical candidate, AMG 511” (J Med Chem, 2012).

Assays:
in vitro [1] = settings: human, liver microsomes
in vitro [2] = settings: rat, liver microsomes
in vivo [3] = settings: Sprague-Dawley, rat, plasma, po, 2 mg/kg
in vivo [4] = settings: Sprague-Dawley, rat, po, 2 mg/kg
in vivo [5] = settings: Sprague-Dawley, rat, iv, 1 mg/kg
in vivo [6] = settings: Sprague-Dawley, rat, iv, 1 mg/kg; remark: listed apart in the source
in vivo [7] = settings: Sprague-Dawley, rat, iv, 1 mg/kg; remark: listed apart in the source
Hepatocyte [8] = settings: rat, hepatocytes, 4 h, 3 µM
Hepatocyte [9] = settings: rat, hepatocytes, 4 h, 3 µM; remark: listed apart in the source

| SMILES | microsomal CLint at 0.5 h, 1 µM (in vitro [1]) [µL/min/mg] | microsomal CLint at 0.5 h, 1 µM (in vitro [2]) [µL/min/mg] | AUC (in vivo [3]) [µM·h] | bioavailability (in vivo [4]) [%] | MRT (in vivo [5]) [h] | Vd (in vivo [6]) [L/kg] | clearance (in vivo [7]) [mL/min/kg] | Drug metabolism (Hepatocyte [8]) | Drug metabolism (Hepatocyte [9]) |
| --- | --- | --- | --- | --- | --- | --- | --- | --- | --- |
| COc1ncc(Nc2ncc(CN3CCN(S(C)(=O)=O)C[C@H]3C)cc2-c2nc(C)nc(N)n2)cc1F | 29 | 120 |  |  |  |  |  |  |  |
| COc1ncc(Nc2ncc(CN3CCN(S(C)(=O)=O)C[C@@H]3C)cc2-c2nc(C)nc(N)n2)cc1F | 41 | 54 | 2.3 | 60 | 3.2 | 3.2 | 16.7 |  |  |
| COc1ncc(Nc2ncc([C@@H](N3CCN(S(C)(=O)=O)CC3)C(F)(F)F)cc2-c2nc(C)nc(N)n2)cc1F | 23 | 17 |  |  |  |  |  |  |  |
| COc1ncc(Nc2ncc([C@H](N3CCN(S(C)(=O)=O)CC3)C(F)(F)F)cc2-c2nc(C)nc(N)n2)cc1F | 25 | 22 |  |  |  |  |  |  |  |
| COc1ncc(Nc2ncc([C@@H](C)N3CCN(S(C)(=O)=O)C[C@H]3C)cc2-c2nc(C)nc(N)n2)cc1F | 64 | 113 |  |  |  |  |  |  |  |
| COc1ncc(Nc2ncc([C@H](C)N3CCN(S(C)(=O)=O)C[C@H]3C)cc2-c2nc(C)nc(N)n2)cc1F | 54 | 174 |  |  |  |  |  |  |  |
| COc1ncc(Nc2ncc([C@@H](C)N3CCN(S(C)(=O)=O)C[C@@H]3C)cc2-c2nc(C)nc(N)n2)cc1F | 67 | 69 | 1.4 | 49 | 3.1 | 4 | 21.7 |  |  |
| COc1ncc(Nc2ncc([C@H](C)N3CCN(S(C)(=O)=O)C[C@@H]3C)cc2-c2nc(C)nc(N)n2)cc1F | 80 | 128 |  |  |  |  |  |  |  |
| COc1ncc(Nc2ncc(C(C)(C)N3CCN(S(C)(=O)=O)CC3)cc2-c2nc(C)nc(N)n2)cc1F | 81 | 58 | 1.3 | 24 | 4.9 | 3.5 | 11.7 |  |  |
| COc1ncc(Nc2ncc(CN3CCN(S(C)(=O)=O)CC3)cc2-c2nc(C)nc(N)n2)cn1 | 14 | 14 |  |  |  |  |  |  |  |
| COc1ncc(Nc2ncc(CN3CCN(S(C)(=O)=O)CC3)cc2-c2nc(C)nc(N)n2)cc1F | < 14 | 30 | 0.95 | 45 | 1.7 | 3.3 | 33.3 | Active | Not Active |

Results, then the compound that gave them:

| microsomal CLint at 0.5 h, 1 µM (in vitro [1]) [µL/min/mg] | microsomal CLint at 0.5 h, 1 µM (in vitro [2]) [µL/min/mg] | AUC (in vivo [3]) [µM·h] | bioavailability (in vivo [4]) [%] | MRT (in vivo [5]) [h] | Vd (in vivo [6]) [L/kg] | clearance (in vivo [7]) [mL/min/kg] | Drug metabolism (Hepatocyte [8]) | Drug metabolism (Hepatocyte [9]) | SMILES |
| --- | --- | --- | --- | --- | --- | --- | --- | --- | --- |
|  | < 14 |  |  |  |  |  |  |  | Cc1nc(N)nc(-c2cc(CN3CCN(S(C)(=O)=O)CC3)cnc2Nc2ccc(=O)[nH]c2)n1 |
| < 14 | 24 |  |  |  |  |  |  |  | Cc1nc(N)nc(-c2cc(CN3CCN(S(C)(=O)=O)CC3)cnc2Nc2ccc(Cl)nc2)n1 |
| < 14 | 22 |  |  |  |  |  |  |  | Cc1ccc(Nc2ncc(CN3CCN(S(C)(=O)=O)CC3)cc2-c2nc(C)nc(N)n2)cn1 |
| < 14 | 22 |  |  |  |  |  |  |  | Cc1nc(N)nc(-c2cc(CN3CCN(S(C)(=O)=O)CC3)cnc2Nc2ccc(C(F)(F)F)nc2)n1 |
| < 14 | 30 |  |  |  |  |  |  |  | Cc1nc(N)nc(-c2cc(CN3CCN(S(C)(=O)=O)CC3)cnc2Nc2cncc(F)c2)n1 |
| 14 | 29 |  |  |  |  |  |  |  | COc1cncc(Nc2ncc(CN3CCN(S(C)(=O)=O)CC3)cc2-c2nc(C)nc(N)n2)c1 |
